Key:
[1] = test system: rat ventral mesencephalan dopaminergic neurons; assay: [3H]Dopamine cell culture assay (6-OHDA neurotoxicity); assay type: cell-based; settings: 6-OHDA 30 μM, uptake 22 hrs after exposure
Protocol: Cultures of dopaminergic neurons were prepared according to a modification of the procedure described by Raymon and Leslie (J. Neurochem. 62:1015-1024, 1994). Time-mated pregnant rats were sacrificed on embyronic day 14-15 (crown rump length 11-12 mm) and the embryos removed by cesarean section. The ventral mesencephalon, containing the dopaminergic neurons, was dissected from each embryo. Tissue pieces from approximately 48 embryos were pooled and dissociated both enzymatically and mechanically. An aliquot from the resulting cell suspension was counted and the cells were plated in high glucose DMEM/F12 culture medium with 10% fetal bovine serum at a density of 1×10^5 cells/well of a Biocoat poly-D-lysine-coated 96-well plate. The day following plating was considered 1 day in vitro (DIV). Cells were maintained in a stable environment at 37° C., 95% humidity, and 5% CO2. A partial medium change was performed at 3 DIV. […]
[^3H]Dopamine uptake is used as a measure of the health and integrity of dopaminergic neurons in culture (Prochiantz et al., PNAS 76: 5387-5391, 1979). […] Briefly, cells treated with 6-OHDA in the presence and absence of 5-amino-anthra(9,1-cd)isothiazol-6-one were assessed in the uptake assay 22 hrs after exposure to 6-OHDA. […] Radioactivity was removed and the cultures were washed 3× with ice cold PBS. […]

[2] = Brain-blood plasma distribution in vivo; design: species or system Sprague-Dawley rats; settings: rat, 10 mg/kg intravenously, 2 hr post-dose
Protocol: 5-Amino-anthra(9,1-cd)isothiazol-6-one was administered intravenously (10 mg/kg) into the veins of Sprague-Dawley rats. After 2 hr, blood samples were obtained from the animals and their vascular systems were perfused with approximately 100 mL of saline to rid their brains of blood. The brains were removed from the animals, weighed, and homogenized in a 50 mL conical tube containing 10 equivalents (w/v) of methanol/saline (1:1) using a Tissue Tearer (Fischer Scientific). The homogenized material was extracted by adding 600 μL of cold methanol to 250 μL of brain homogenate vortexed for 30 sec and subjected to centrifugation for 5 min. After centrifugation, 600 μL of the resulting supernatant was transferred to a clean tube and evaporated at room temperature under reduced pressure to provide a pellet. […] The brain homogenate analysis samples, plasma analysis samples, and standard analysis samples were analyzed and compared using HPLC by injecting 100 μL of a sample onto a 5 μm C-18 Luna column (4.6 mm×150 mm, commercially available from Phenomenex of Torrance, Calif.) and eluting at 1 mL/min with a linear gradient of 30% aqueous acetonitrile containing 0.1% trifluoroacetic acid to 90% aqueous acetonitrile containing 0.1% trifluoroacetic acid over 8 minutes and holding at 90% aqueous acetonitrile containing 0.1% trifluoroacetic acid for 3 min. with absorbance detection at 450 nm. […]

[3] = Solubility in aqueous media (remark); assay type: physicochemical

brain-drug concentration [2]: approximately 65 nmole/g | solubility in aqueous media [3]: limited solubility
Compound: Nc1ccc2snc3c2c1C(=O)c1ccccc1-3 [5-amino-anthra(9,1-cd)isothiazol-6-one]
protection of dopaminergic neurons from 6-OHDA ([3H]dopamine uptake) [1]: protects rat ventral mesencephalan neurons from the toxic effects of 6-OHDA

From US20060122179A1, “Methods and compositions using JNK inhibitors for treatment and management of central nervous system injury” (priority 2004, published 2006)
